Type in all cases: functional
One assay deals with Nannizzia gypsea. Briefly: Antifungal activity against Microsporum gypseum NCPF 580 after 7 days by microbroth dilution method. To be noted: NCPF 580, 168 h, read-out: MIC100.
The next assay relates to Trichophyton erinacei. Description: Antifungal activity against Trichophyton mentagrophytes var. erinacei NCPF 375 after 7 days by microbroth dilution method. To be noted: NCPF 375, 168 h, read-out: MIC100. For orientation: Broth dilution looks for growth in wells or tubes with falling amounts of substance.
In the next assay the test system is Escherichia coli. Briefly: Antibacterial activity against Escherichia coli ATCC 25922 after 16 to 20 hrs by microbroth dilution method.
The test system of the next assay is Staphylococcus aureus. Briefly: Antibacterial activity against Staphylococcus aureus ATCC 29213 after 16 to 20 hrs by microbroth dilution method.
The test system of a further assay is Pseudomonas aeruginosa. Briefly: Antibacterial activity against Pseudomonas aeruginosa ATCC 27853 after 16 to 20 hrs by microbroth dilution method.
The subject of a further assay is Trichophyton tonsurans. Briefly: Antifungal activity against Trichophyton tonsurans NCPF 245 after 7 days by microbroth dilution method. To be noted: NCPF 245, 168 h, read-out: MIC100.
A further assay relates to Pichia kudriavzevii. Briefly: Antifungal activity against Candida krusei ATCC 6258 after 48 hrs by microbroth dilution method. The following applies: ATCC 6258, 48 h.
The subject of another assay is Candida albicans. Briefly: Antifungal activity against Candida albicans ATCC 10231 after 48 hrs by microbroth dilution method. The following applies: ATCC 10231, 48 h.
In the next assay the test system is Candida parapsilosis. Briefly: Antifungal activity against Candida parapsilosis ATCC 22019 after 48 hrs by microbroth dilution method. The following applies: Lodderomyces parapsilosis, ATCC 22019, 48 h.
The subject of assay [1] is Mycobacterium tuberculosis. Briefly: Antimycobacterial activity against Mycobacterium tuberculosis H37Rv ATCC 27294 by microplate alamar blue assay. (In general: Alamar Blue is a resazurin reagent that responds to reducing activity.)
The mark [2] stands for this setting: Mycobacterium tuberculosis, H37Rv ATCC 27294.

Values after ≈ are worked out from the molar mass of the structure shown. Active and inactive are the calls of the source. No cut-off for these calls is given here.

With `Cc1ccc(-n2c(Cc3csc4nc(-c5ccc(Br)cc5)cn34)n[nH]c2=S)cc1`, the MIC with Nannizzia gypsea came out at 16 µg/mL (≈ 33.2 µM); in the assay on Trichophyton erinacei, 16 µg/mL (≈ 33.2 µM); in the assay with Escherichia coli it was 64 µg/mL (≈ 133 µM); in the assay with Staphylococcus aureus, 64 µg/mL (≈ 133 µM); in the assay on Pseudomonas aeruginosa, 64 µg/mL (≈ 133 µM); in the assay on Trichophyton tonsurans, 16 µg/mL (≈ 33.2 µM). The MIC against Pichia kudriavzevii, in the assay on Candida albicans and against Candida parapsilosis was 16 µg/mL (≈ 33.2 µM) each time. In assay [1], the “inhibition (INH)” value was found to be 4%. Also, the MIC90 in assay [1] (setting [2]) is more than 6.25 µg/mL.

Regarding `Cn1c(Cc2csc3nc(-c4ccc(Br)cc4)cn23)n[nH]c1=S`, the MIC was 16 µg/mL (≈ 39.4 µM) with Nannizzia gypsea; 8 µg/mL (≈ 19.7 µM) in the assay on Trichophyton erinacei; more than 64 µg/mL against Escherichia coli; more than 64 µg/mL in the assay on Staphylococcus aureus; more than 64 µg/mL with Pseudomonas aeruginosa; 16 µg/mL (≈ 39.4 µM) in the assay on Trichophyton tonsurans. The MIC in the assay on Pichia kudriavzevii, against Candida albicans and against Candida parapsilosis was 32 µg/mL (≈ 78.8 µM) throughout. Moreover, in [1], the inhibition result is “inactive”. In assay [1] (setting [2]), this molecule yielded an MIC90 of more than 6.25 µg/mL.

With `S=c1[nH]nc(Cc2csc3nc(-c4ccc(Br)cc4)cn23)n1-c1ccc(Br)cc1`, the MIC is 64 µg/mL (≈ 117 µM) in the assay on Nannizzia gypsea; 64 µg/mL (≈ 117 µM) in the assay on Trichophyton erinacei; more than 64 µg/mL against Escherichia coli; more than 64 µg/mL against Staphylococcus aureus; more than 64 µg/mL in the assay on Pseudomonas aeruginosa; 32 µg/mL (≈ 58.5 µM) with Trichophyton tonsurans. In addition, the MIC amounted to 64 µg/mL (≈ 117 µM) in the assay on Pichia kudriavzevii, 64 µg/mL (≈ 117 µM) in the assay with Candida albicans and 32 µg/mL (≈ 58.5 µM) with Candida parapsilosis. For the same molecule, the inhibition result in assay [1] is “inactive”. Further, in assay [1] (setting [2]), the MIC90 is more than 6.25 µg/mL.

Regarding `CO[C@H]1/C=C/O[C@@]2(C)Oc3c(C)c(O)c4c(O)c(c(/C=N/N5CCN(C)CC5)c(O)c4c3C2=O)NC(=O)/C(C)=C\C=C\[C@H](C)[C@H](O)[C@@H](C)[C@@H](O)[C@@H](C)[C@H](OC(C)=O)[C@@H]1C` [RIFAMPIN], in [1], the “inhibition (INH)” value was found to be 97%. Besides, in assay [1] (Mycobacterium tuberculosis, H37Rv ATCC 27294, read-out: MIC100), the MIC stood at 0.25 µg/mL (≈ 0.304 µM).

Take `S=c1[nH]nc(Cc2csc3nc(-c4ccc(Br)cc4)cn23)n1-c1ccc(Cl)cc1`: the MIC in the assay with Nannizzia gypsea is 32 µg/mL (≈ 63.6 µM); in the assay on Trichophyton erinacei, 32 µg/mL (≈ 63.6 µM); against Escherichia coli it was more than 64 µg/mL; in the assay with Staphylococcus aureus, more than 64 µg/mL; against Pseudomonas aeruginosa it was more than 64 µg/mL; in the assay with Trichophyton tonsurans, 32 µg/mL (≈ 63.6 µM). Besides, the MIC is 64 µg/mL (≈ 127 µM) in the assay with Pichia kudriavzevii, 64 µg/mL (≈ 127 µM) against Candida albicans and more than 64 µg/mL in the assay on Candida parapsilosis. For the same molecule, the inhibition result in assay [1] was “inactive”. The molecule also showed an MIC90 in assay [1] (setting [2]) of more than 6.25 µg/mL.

Regarding `CNc1nnc(Cc2csc3nc(-c4ccc(Br)cc4)cn23)s1`, the MIC with Nannizzia gypsea was 16 µg/mL (≈ 39.4 µM); in the assay with Trichophyton erinacei, 16 µg/mL (≈ 39.4 µM); against Escherichia coli it was more than 64 µg/mL; with Staphylococcus aureus it was more than 64 µg/mL; against Pseudomonas aeruginosa, more than 64 µg/mL; in the assay on Trichophyton tonsurans it was 8 µg/mL (≈ 19.7 µM). In addition, the MIC was found to be 16 µg/mL (≈ 39.4 µM) in the assay with Pichia kudriavzevii, 32 µg/mL (≈ 78.8 µM) against Candida albicans and 16 µg/mL (≈ 39.4 µM) in the assay on Candida parapsilosis.

Take `CCNc1nnc(Cc2csc3nc(-c4ccc(Br)cc4)cn23)s1`: the MIC in the assay on Nannizzia gypsea turned out to be 16 µg/mL (≈ 38.1 µM); in the assay with Trichophyton erinacei, 16 µg/mL (≈ 38.1 µM); against Escherichia coli, 32 µg/mL (≈ 76.1 µM); against Staphylococcus aureus, 64 µg/mL (≈ 152 µM); against Pseudomonas aeruginosa, 64 µg/mL (≈ 152 µM); in the assay on Trichophyton tonsurans, 8 µg/mL (≈ 19 µM). Moreover, the MIC against Pichia kudriavzevii stood at 32 µg/mL (≈ 76.1 µM); in the assay with Candida albicans, 64 µg/mL (≈ 152 µM); in the assay on Candida parapsilosis, 64 µg/mL (≈ 152 µM).

Take `CCCCn1c(Cc2csc3nc(-c4ccc(Br)cc4)cn23)n[nH]c1=S`: the MIC with Nannizzia gypsea was 32 µg/mL (≈ 71.4 µM); in the assay on Trichophyton erinacei, 32 µg/mL (≈ 71.4 µM); against Escherichia coli, 32 µg/mL (≈ 71.4 µM); against Staphylococcus aureus, 32 µg/mL (≈ 71.4 µM); with Pseudomonas aeruginosa, 64 µg/mL (≈ 143 µM); in the assay on Trichophyton tonsurans, 32 µg/mL (≈ 71.4 µM). Also, the MIC is 64 µg/mL (≈ 143 µM) in the assay with Pichia kudriavzevii, 32 µg/mL (≈ 71.4 µM) with Candida albicans and 64 µg/mL (≈ 143 µM) against Candida parapsilosis. Moreover, the inhibition entry in [1] is “inactive”. The MIC90 in [1] (setting [2]) is more than 6.25 µg/mL.

For the molecule `C[C@H]1COc2c(N3CCN(C)CC3)c(F)cc3c(=O)c(C(=O)O)cn1c23.C[C@H]1COc2c(N3CCN(C)CC3)c(F)cc3c(=O)c(C(=O)O)cn1c23.O` [LEVOFLOXACIN], the MIC against Staphylococcus aureus worked out at 0.12 µg/mL; against Pseudomonas aeruginosa, 0.5 µg/mL.

For the molecule `C=CCn1c(Cc2csc3nc(-c4ccc(Br)cc4)cn23)n[nH]c1=S`, the MIC is 64 µg/mL (≈ 148 µM) in the assay with Nannizzia gypsea; 64 µg/mL (≈ 148 µM) in the assay with Trichophyton erinacei; more than 64 µg/mL in the assay with Escherichia coli; more than 64 µg/mL in the assay with Staphylococcus aureus; more than 64 µg/mL against Pseudomonas aeruginosa; 32 µg/mL (≈ 74 µM) in the assay on Trichophyton tonsurans. The MIC with Pichia kudriavzevii, with Candida albicans and in the assay with Candida parapsilosis was 64 µg/mL (≈ 148 µM) each time. Further, the “inhibition (INH)” value in assay [1] turned out to be 1%. Besides, in [1] (setting [2]), the MIC90 is more than 6.25 µg/mL.

Regarding `CCC(C)n1ncn(-c2ccc(N3CCN(c4ccc(OCC5COC(Cn6cncn6)(c6ccc(Cl)cc6Cl)O5)cc4)CC3)cc2)c1=O` (configuration not stated) [ITRACONAZOLE], the MIC with Pichia kudriavzevii stood at 0.12 µg/mL (≈ 0.17 µM); in the assay with Candida albicans, 0.12 µg/mL (≈ 0.17 µM); in the assay with Candida parapsilosis, 0.06 µg/mL (≈ 0.085 µM).

For the molecule `CCn1c(Cc2csc3nc(-c4ccc(Br)cc4)cn23)n[nH]c1=S`, the MIC is 16 µg/mL (≈ 38.1 µM) in the assay with Nannizzia gypsea; 16 µg/mL (≈ 38.1 µM) in the assay on Trichophyton erinacei; 64 µg/mL (≈ 152 µM) in the assay on Escherichia coli; 64 µg/mL (≈ 152 µM) against Staphylococcus aureus; more than 64 µg/mL in the assay on Pseudomonas aeruginosa; 8 µg/mL (≈ 19 µM) in the assay on Trichophyton tonsurans. In addition, the MIC against Pichia kudriavzevii, against Candida albicans and against Candida parapsilosis was 32 µg/mL (≈ 76.1 µM) in each case. For the same molecule, the inhibition entry in assay [1] is “inactive”. For the same molecule, in [1] (setting [2]), the MIC90 is more than 6.25 µg/mL.

With `S=c1[nH]nc(Cc2csc3nc(-c4ccc(Br)cc4)cn23)n1-c1ccccc1`, the MIC in the assay with Nannizzia gypsea was 32 µg/mL (≈ 68.3 µM); in the assay with Trichophyton erinacei, 32 µg/mL (≈ 68.3 µM); in the assay with Escherichia coli, more than 64 µg/mL; in the assay on Staphylococcus aureus, 64 µg/mL (≈ 137 µM); against Pseudomonas aeruginosa it was more than 64 µg/mL; with Trichophyton tonsurans, 16 µg/mL (≈ 34.2 µM). Moreover, the MIC with Pichia kudriavzevii, in the assay with Candida albicans and with Candida parapsilosis was 32 µg/mL (≈ 68.3 µM) each time. For the same molecule, the “inhibition (INH)” value in [1] came to 3%. This molecule also had an MIC90 in [1] (setting [2]) of more than 6.25 µg/mL.

Regarding `CCCn1c(Cc2csc3nc(-c4ccc(Br)cc4)cn23)n[nH]c1=S`, the MIC is 16 µg/mL (≈ 36.8 µM) in the assay with Nannizzia gypsea; 16 µg/mL (≈ 36.8 µM) in the assay on Trichophyton erinacei; 64 µg/mL (≈ 147 µM) against Escherichia coli; 64 µg/mL (≈ 147 µM) against Staphylococcus aureus; more than 64 µg/mL against Pseudomonas aeruginosa; 8 µg/mL (≈ 18.4 µM) in the assay on Trichophyton tonsurans. The values for the MIC against Pichia kudriavzevii, in the assay on Candida albicans and against Candida parapsilosis were 64 µg/mL (≈ 147 µM), 32 µg/mL (≈ 73.7 µM) and 64 µg/mL (≈ 147 µM), respectively. Besides, in assay [1], the inhibition result was “inactive”. Further, in assay [1] (setting [2]), the MIC90 is more than 6.25 µg/mL.

With `C[C@@H]1[C@H](O)[C@@H](C)/C=C/C=C/C=C/C=C/C=C/C=C/C=C/[C@H](O[C@@H]2O[C@H](C)[C@@H](O)[C@H](N)[C@@H]2O)C[C@@H]2O[C@](O)(C[C@@H](O)C[C@@H](O)[C@H](O)CC[C@@H](O)C[C@@H](O)CC(=O)O[C@H]1C)C[C@H](O)[C@H]2C(=O)O` [AMPHOTERICIN B], the MIC was found to be 0.5 µg/mL (≈ 0.541 µM) with Nannizzia gypsea, 0.5 µg/mL (≈ 0.541 µM) in the assay with Trichophyton erinacei and 0.25 µg/mL (≈ 0.271 µM) in the assay with Trichophyton tonsurans.

The MIC90 is the lowest concentration that inhibits either 90% of growth or 90% of the strains tested, depending on the study.
